According to patent US9261498B2, “Biomarker for sensitivity to mTOR inhibitor therapy in kidney cancer” (The Regents of the University of California, priority 2005, dated 2016):

Tested on: VEGF
Experiment: VEGF ELISA of conditioned media
Type: cell-based, human
Conditions: VHL knockdown cells, 10 nM CCI-779, 36 hours, normalized to total cellular protein
Method: FIGS. 2A-2C. Effects of VHL knockdown on angiogenesis. (a) Microvessel density was quantified by CD-31 immunolabeling (arrows) in the xenograft tumors, and difference between CCI-779 treated (+) and vehicle (−) treated mice quantified (n=6 in each group). P<0.0033 for microvessel density counts in VHL shRNA compared to vector only (see blue bars). (b) Similar number of cells were plated and maintained in 10% serum rich media, in the presence (+) or absence (−) of 10 nM CCI-779. Thirty-six hours later, conditioned media was analyzed by anti-VEGF ELISA and cell extracts prepared for protein quantification. VEGF values were normalized to total cellular protein. Error bars equal one standard deviation (n=3). […] Bound antibody was detected using enhanced chemiluminescence (ECL, Amersham). For VEGF ELISA quantification, cells were plated in 6 well plates (1×10^5 per well). […] Thirty-six hours later, VEGF ELISA (R&D Systems) was performed according to the manufacturer's instructions, using a Fisher Plate reader. […] Bound antibody was detected using enhanced chemiluminescence (ECL, Amersham). For VEGF ELISA quantification, cells were plated in 6 well plates (1×10^5 per well). […] Thirty-six hours later, VEGF ELISA (R&D Systems) was performed according to the manufacturer's instructions, using a Fisher Plate reader. […]

CO[C@H]1C[C@@H]2CC[C@@H](C)[C@@](O)(O2)C(=O)C(=O)N2CCCC[C@H]2C(=O)O[C@H]([C@H](C)C[C@@H]2CC[C@@H](OC(=O)C(C)(CO)CO)[C@H](OC)C2)CC(=O)[C@H](C)/C=C(\C)[C@@H](O)[C@@H](OC)C(=O)[C@H](C)C[C@H](C)/C=C/C=C/C=C/1C [CCI-779]
reduction of secreted VEGF levels: 2 fold
